System: dechlorinating bacteria known to convert PCE to ethene
Assay: Set A: Ladder of YM, PCE dechlorination microcosms (kinetics, Relative Rate, paired t-test)
Type: cell-based, Dehalococcoides and Dehalobacter spp.
From the text: Certain contaminated materials (or sites) may contain indigenous microbial communities that are sufficient for complete bioremediation of contaminants. For such sites, there is no need to add microbes unless the indigenous microbes are genetically deficient in achieving the desired clean-up goals. For those sites that are microbiologically limited, microorganisms may be added to the contaminated materials (or sites). In one embodiment, the inoculum may be a mixed culture of halo-respiring bacteria that have been enriched to reach an optimal cell density. These mixed cultures of halo-respiring bacteria may be typically obtained from sediment samples from rivers, streams or any waterways. More specifically, the inoculum used in the Examples was originated from a Sangamon River sediment sample (Lodge Park, Piatt County, Ill.) See, e.g., Brennan, R. A., Sanford, R. A. and Werth, C. J. (2006). “Biodegradation of Tetrachloroethene by Chitin Fermentation Products in a Continuous Flow Column System.” Journal of Environ. Engr., June 665-673. This culture had grown for several years on PCE, anaerobic basal salts medium, Wolfe's vitamin solution and various electron donors including lactate (1-2 millimolar (mM)), formate (4 mM) and chitin using the Volatile Interface Transfer Apparatus (VITA) reactor system at the University of Illinois. Brennan, R. A., and Sanford, R. A. (2002). “Continuous steady-state method using Tenax for delivering tetrachloroethene to chlororespiring bacteria.” Appl. Environ. Microbiol., 68(3), 1464-1467. […] Using 16S rRNA gene-specific primers, both Dehalococcoides and Dehalobacter spp. were detected. Quantitative real-time PCR has been used to determine that approximately 1.65×10^7 Dehalococcoides gene copies were present per ml of culture.
For purpose of this disclosure, each bottle may be started with a certain amount of PCE. At subsequent times each bottle may be sampled for the degradation daughter products of PCE, namely trichloroethene (TCE), cis-dichloroethene (DCE), vinyl chloride (VC) and ethene, etc. Trans-DCE and 1,1-DCE are also daughter products of PCE, but they may not be detectable under the conditions disclosed here.
The rate of degradation may be determined by calculating the number of pmoles of chloride ions removed from PCE and subsequently from the amounts of the daughter products generated. The calculation may be performed as follows: Chloride (μmoles)=[…]−4×PCE (μmoles)−3×TCE (pmoles)−2×DCE (μmoles)−VC (μmoles)
The alternative chloride calculation is: Chloride (μmoles)=TCE (μmoles)+2×DCE (μmoles)+3×VC (μmoles)+4×Ethene (μmoles)
Next, the dechlorination rate may be determined for each bottle at each time by dividing the Chloride generated by the time (days). The data may be then normalized to the lactate control by taking the ratio of Chloride Rate (pmoles/day) and the Lactate Control Chloride Rate (pmoles/day). This ratio is called Relative Rate and is dimensionless.
As shown in the Examples, a paired t-test has been conducted to calculate the probability that the Relative Rate of one group (i.e. with Nutrient) is greater than the other group (i.e. without Nutrient). The null hypothesis is that the underlying means of the two paired groups are equal. The Probability that one group has higher Relative Rates than the other group is shown in various tables in the Examples.
The following components were used in the system for bioremediating contaminated ground water microcosms in Examples 2-8: • 160 milliliter (ml) stoppered serum bottles • 100 ml of anaerobic culture medium, groundwater containing an excess of bioavailable phosphorus and nitrogen at 0.5 mM Phosphate and 1 mM ammonium degassed with a nitrogen sparge • Nominally 1 gram of limestone • 19.54 micromoles (pmoles) Perchloroethene (PCE) • An excess of various electron donors were utilized • 3 ml of inoculum containing dechlorinating bacteria known to convert PCE to ethene. […]

How did the “Average Relative Rate” value turn out when `CC(O)C(=O)[O-].[Na+]` (centres unmarked) [Lactate Control, sodium lactate] was run?
Its value is 1.00.

What about the “Cl^− Rate ± s.d.” value (0 days) of the same compound?
The value was 0.00 ± 0.00 µmol.

What about the “Cl^− ± s.d.” value (0 days) of the same compound?
Its value is 0.00 ± 0.00 µmol.

What about the “DCE ± s.d.” value (0 days) of the same compound?
The value was 0.00 ± 0.00 µmol.

And the “Ethene ± s.d.” value (0 days)?
Its value is 0.00 ± 0.00 µmol.

What about the “PCE ± s.d.” value (0 days) of the same compound?
The value was 19.54 ± 0.00 µmol.

And the “TCE ± s.d.” value (0 days)?
The value was 0.00 ± 0.00 µmol.

And the “VC ± s.d.” value (0 days)?
The value was 0.00 ± 0.00 µmol.

What about the “Cl^− Rate ± s.d.” value (14 days) of the same compound?
Its value is 2.58 ± 0.17 µmol.

What about the “Cl^− ± s.d.” value (14 days) of the same compound?
Its value is 36.18 ± 2.43 µmol.

And the “DCE ± s.d.” value (14 days)?
Its value is 0.42 ± 0.03 µmol.

What about the “Ethene ± s.d.” value (14 days) of the same compound?
The value was 0.00 ± 0.00 µmol.

What about the “PCE ± s.d.” value (14 days) of the same compound?
The value was 8.45 ± 0.55 µmol.

What about the “TCE ± s.d.” value (14 days) of the same compound?
Its value is 2.00 ± 0.04 µmol.

And the “VC ± s.d.” value (14 days)?
Its value is 1.33 ± 0.41 µmol.

What about the “Cl^− Rate ± s.d.” value (35 days) of the same compound?
Its value is 1.33 ± 0.15 µmol.

And the “Cl^− ± s.d.” value (35 days)?
Its value is 46.47 ± 5.25 µmol.

What about the “DCE ± s.d.” value (35 days) of the same compound?
The value was 1.60 ± 0.82 µmol.

And the “Ethene ± s.d.” value (35 days)?
The value was 0.33 ± 0.29 µmol.

What about the “PCE ± s.d.” value (35 days) of the same compound?
Its value is 4.08 ± 0.81 µmol.

And the “TCE ± s.d.” value (35 days)?
Its value is 2.77 ± 0.47 µmol.

And the “VC ± s.d.” value (35 days)?
The value was 3.86 ± 2.11 µmol.

What about the “Cl^− Rate ± s.d.” value (53 days) of the same compound?
Its value is 1.06 ± 0.06 µmol.

What about the “Cl^− ± s.d.” value (53 days) of the same compound?
The value was 56.17 ± 3.17 µmol.

And the “DCE ± s.d.” value (53 days)?
Its value is 5.31 ± 1.00 µmol.

And the “Ethene ± s.d.” value (53 days)?
The value was 0.78 ± 0.79 µmol.

What about the “PCE ± s.d.” value (53 days) of the same compound?
The value was 0.33 ± 0.27 µmol.

What about the “TCE ± s.d.” value (53 days) of the same compound?
The value was 0.52 ± 0.47 µmol.

And the “VC ± s.d.” value (53 days)?
Its value is 8.52 ± 6.24 µmol.

And the “Relative Rate” value (bottle 1, 14 days)?
Its value is 0.92.

What about the “Relative Rate” value (bottle 1, 35 days) of the same compound?
Its value is 1.11.

And the “Relative Rate” value (bottle 1, 53 days)?
Its value is 0.96.

And the “Relative Rate” value (bottle 2, 14 days)?
Its value is 1.02.

What about the “Relative Rate” value (bottle 2, 35 days) of the same compound?
The value was 1.00.

What about the “Relative Rate” value (bottle 2, 53 days) of the same compound?
The value was 1.06.

What about the “Relative Rate” value (bottle 3, 14 days) of the same compound?
The value was 1.05.

And the “Relative Rate” value (bottle 3, 35 days)?
Its value is 0.89.

What about the “Relative Rate” value (bottle 3, 53 days) of the same compound?
Its value is 0.98.

Reference: patent US10179355B2, “Bioremediation enhancing agents and methods of use” (JRW BIOREMEDIATION, LLC, priority 2007, dated 2019)
